Reference: patent publication US20100093531A1 (priority 2007, published 2010)
Read-outs that look alike come from different tables or passages of the source.

Assays:
Phakopsora pachyrhizi = experiment: Curative control of soy bean rust on soy beans caused by Phakopsora pachyrhizi (greenhouse); assay type: in vivo; conditions: individual active compound, 14 days
Experimental: (§1) Preparation: The spray solutions were prepared in several steps:
(§2) A stock solution was prepared: a mixture of acetone and/or DMSO and the wetting agent/emulsifier Uniperol, which is based on ethoxylated alkylphenoles, in a relation (volume) solvent-emulsifier of 99 to 1 was added to 25 mg of the compound to give a total of 10 ml. Water was then added to total volume of 100 ml.
(§3) This stock solution was diluted with the described solvent-emulsifier-water mixture to the given concentration.
Leaves of pot-grown soy bean seedlings were inoculated with spores of Phakopsora pachyrhizi. To ensure the success the artificial inoculation, the plants were transferred to a humid chamber with a relative humidity of about 95% and 23 to 27° C. for 24 h. The next day the plants were sprayed to run-off with an aqueous suspension, containing the concentration of active ingredient as described below. The plants were allowed to air-dry. Then the trial plants were cultivated for 14 days in a greenhouse chamber at 23-27° C. and a relative humidity between 60 and 80%. The extent of fungal attack on the leaves was visually assessed as % diseased leaf area.
(§4) Evaluation was carried out analogously to example 1.

Phytophthora infestans [1] = experiment: microbe, parasite or virus in culture; assay type: cell-based; conditions: for Efficacy in % of the untreated control: individual active compound, microtiter test, day 7
Plasmopara viticola = experiment: Fungicidal control of grape downy mildew caused by Plasmopara viticola (greenhouse); assay type: in vivo; conditions: individual active compound
Experimental: as §1, §2, §3
Grape cuttings were grown in pots to the 4 to 5 leaf stage. These plants were sprayed to run-off with an aqueous suspension, containing the concentration of active ingredient or their mixture mentioned in the table below. The plants were allowed to air-dry. The next day they were inoculated with an aqueous spore suspension of Plasmopara viticola by spraying it at the lower leaf-side. Then the trial plants were immediately transferred for 24 h to a humid chamber with 22-24° C. and a relative humidity close to 100%. For a period of 5 days, cultivation followed in a greenhouse at 20-25° C. and a relative humidity about 50-80%. To stimulate the outbreak of the disease symptoms, the plants were transferred to a humid chamber again for 24 hours. Then the extent of fungal attack on the lower leaf surface was visually assessed as % diseased leaf area.
as §4

Phytophthora infestans [2] = assay type: in vivo; conditions: individual active compound, tomato, 6 days after inoculation
Botrytis cinerea = experiment: Preventative control of grey mold (Botrytis cinerea) on leaves of green pepper (greenhouse); assay type: in vivo; conditions: individual active compound, 5 days after inoculation
Experimental: as §1, §2, §3
Young seedlings of green pepper were grown in pots to the 2 to 3 leaf stage. These plants were sprayed to run-off with an aqueous suspension, containing the concentration of active ingredient or their mixture mentioned in the table below. The next day the treated plants were inoculated with a spore suspension of Botrytis cinerea in a 2% aqueous biomalt solution. Then the trial plants were immediately transferred to a dark, humid chamber. After 5 days at 22 to 24° C. and a relative humidity close to 100% the extent of fungal attack on the leaves was visually assessed as % diseased leaf area.
as §4

Septoria tritici = experiment: Activity against Septoria tritici in the microtiter test; assay type: cell-based; conditions: individual active compound, day 7
[3] = Phytophthora infestans, 168 h, read-out: Efficacy in % of the untreated control

## CCNC(=NNc1c(Cl)cc(C(F)(F)F)cc1Cl)C1(C)CC1(Cl)Cl (stereo not drawn) [A.23-1, N-R′-2,2-dihalo-1-R″cyclo-propanecarboxamide-2-(2,6-dichloro-α,α,α-fluoro-p-tolyl)hydrazone, wherein R′ is ethyl, halo is chloro, and R″ is methyl]
Phakopsora pachyrhizi; 63 ppm in the spray liquor
  Efficacy in % of the untreated control: 0%
Phytophthora infestans [1]; 1 ppm
  Efficacy in % of the untreated control: 10%
Phytophthora infestans [1]; 4 ppm
  Efficacy in % of the untreated control: 15%
Phytophthora infestans [1]; 16 ppm
  Efficacy in % of the untreated control: 15%

## C/C(=N\C#N)N(C)Cc1ccc(Cl)nc1 [Acetamipyrid]
Phytophthora infestans [1]; 4 ppm
  Efficacy in % of the untreated control: 7%
Phytophthora infestans [1]; 16 ppm
  Efficacy in % of the untreated control: 9%
Plasmopara viticola; 16 ppm in the spray liquor
  Efficacy in % of the untreated control: 0%

## CNC(=O)Oc1cccc2c1OC(C)(C)C2 [Carbofuran, reference compound]
Phakopsora pachyrhizi; 16 ppm in the spray liquor
  Efficacy in % of the untreated control: 0%
Phytophthora infestans [1]; [3]
  inhibition of growth at 1 ppm: 6%
  inhibition of growth at 4 ppm: 8%
  inhibition of growth at 16 ppm: 12%
Phytophthora infestans [2]; 16 ppm in the spray liquor
  Efficacy in % of the untreated control: 0%

## CN/C(=N\[N+](=O)[O-])NCc1cnc(Cl)s1 [Clothianidin]
Phytophthora infestans [1]; [3]
  inhibition of growth at 1 ppm: 2%
  inhibition of growth at 4 ppm: 2%
  inhibition of growth at 16 ppm: 11%

## N#Cc1nn(-c2c(Cl)cc(C(F)(F)F)cc2Cl)c(N)c1[S+]([O-])C(F)(F)F (stereo not drawn) [Fipronil, reference compound]
Phytophthora infestans [1]; [3]
  inhibition of growth at 1 ppm: 1%
  inhibition of growth at 4 ppm: 16%
  inhibition of growth at 16 ppm: 20%
Phytophthora infestans [2]; 16 ppm in the spray liquor
  Efficacy in % of the untreated control: 0%
Phytophthora infestans [2]; 63 ppm in the spray liquor
  Efficacy in % of the untreated control: 0%
Botrytis cinerea; 63 ppm in the spray liquor
  Efficacy in % of the untreated control: 10%
Plasmopara viticola; 16 ppm in the spray liquor
  Efficacy in % of the untreated control: 0%

## O=[N+]([O-])NC1=NCCN1Cc1ccc(Cl)nc1 [Imidacloprid, reference compound]
Phytophthora infestans [1]; [3]
  inhibition of growth at 1 ppm: 5%
  inhibition of growth at 4 ppm: 6%
  inhibition of growth at 16 ppm: 11%
Phytophthora infestans [2]; 16 ppm in the spray liquor
  Efficacy in % of the untreated control: 22%

## N#Cc1ccc(C/C(=N\NC(=O)Nc2ccc(OC(F)(F)F)cc2)c2cccc(C(F)(F)F)c2)cc1 [Metaflumizon]
Phytophthora infestans [1]; 4 ppm
  Efficacy in % of the untreated control: 6%
Phytophthora infestans [1]; 16 ppm
  Efficacy in % of the untreated control: 12%
Septoria tritici; 63 ppm
  Efficacy in % of the untreated control: 0%
Plasmopara viticola; 16 ppm in the spray liquor
  Efficacy in % of the untreated control: 0%

## CCc1nc2ncnn2c(N)c1CCC(C)CC(C)(C)C (stereo not drawn) [Tab. 1, # I-113, 5-ethyl-6-(3,5,5-trimethylhexyl)[1,2,4]triazolo[1,5-a]pyrimidin-7-ylamine]
Phytophthora infestans [1]; [3]
  inhibition of growth at 4 ppm: 11%
Phytophthora infestans [2]; 4 ppm in the spray liquor
  Efficacy in % of the untreated control: 22%

## CCCCCCCCc1c(COC)nc2ncnn2c1N [Tab. 1, # I-245, 5-methoxymethyl-6-octyl-[1,2,4]triazolo[1,5-a]pyrimidin-7-ylamine]
Phakopsora pachyrhizi; 4 ppm in the spray liquor
  Efficacy in % of the untreated control: 0%
Phakopsora pachyrhizi; 16 ppm in the spray liquor
  Efficacy in % of the untreated control: 0%
Phytophthora infestans [1]; [3]
  inhibition of growth at 0.25 ppm: 10%
Phytophthora infestans [2]; 16 ppm in the spray liquor
  Efficacy in % of the untreated control: 0%
Septoria tritici; 16 ppm
  Efficacy in % of the untreated control: 4%

## CCCCCCCCc1nc2ncnn2c(N)c1CC [Tab. 1, # I-290, 6-ethyl-5-octyl-[1,2,4]triazolo[1,5-a]pyrimidin-7-ylamine]
Botrytis cinerea; 16 ppm in the spray liquor
  Efficacy in % of the untreated control: 0%
Plasmopara viticola; 4 ppm in the spray liquor
  Efficacy in % of the untreated control: 0%
Plasmopara viticola; 16 ppm in the spray liquor
  Efficacy in % of the untreated control: 56%

## Cc1nc2ncnn2c(N)c1-c1ccc(Cl)c(Cl)c1 [Tab. 1, I-9, 6-(3,4-dichlorophenyl)-5-methyl-[1,2,4]triazolo[1,5-a]pyrimidin-7-ylamine]
Phytophthora infestans [1]; [3]
  inhibition of growth at 1 ppm: 64%
Septoria tritici; 16 ppm
  Efficacy in % of the untreated control: 12%
Plasmopara viticola; 4 ppm in the spray liquor
  Efficacy in % of the untreated control: 0%

## CCCCCCCCc1c(CC)nc2ncnn2c1N [Tab. 1, I-110, 5-ethyl-6-octyl-[1,2,4]triazolo[1,5-a]pyrimidin-7-ylamine]
Phytophthora infestans [1]; [3]
  inhibition of growth at 1 ppm: 7%

## CC1(C)C(C=C(Cl)Cl)C1C(=O)OC(C#N)c1cccc(Oc2ccccc2)c1 (stereo not drawn) [alpha-Cypermethrin]
Phytophthora infestans [1]; [3]
  inhibition of growth at 4 ppm: 7%
  inhibition of growth at 16 ppm: 9%

## CC1(C)C(C=C(Cl)Cl)C1C(=O)OC(C#N)c1cccc(Oc2ccccc2)c1 (stereo not drawn) [α-Cypermethrin]
Septoria tritici; 63 ppm
  Efficacy in % of the untreated control: 9%

## CC1(C)C(C=C(Cl)Cl)C1C(=O)OC(C#N)c1cccc(Oc2ccccc2)c1 (stereo not drawn) [α-Cypermetrin]
Plasmopara viticola; 63 ppm in the spray liquor
  Efficacy in % of the untreated control: 0%
